The values that follow come from BindingDB's records for doi:10.1021/np070341r (Leibniz-Institute For Natural Product Research and …, 2008).

This assay has as its target Dual specificity tyrosine-phosphorylation-regulated kinase 1A (Homo sapiens, UniProt Q13627). The assay is described as follows: Inhibition of human recombinant DYRK1A.

Structures are written as SMILES.

As for `COC(=O)[C@@]1(Cc2ccc(O)c(CC=C(C)C)c2)OC(=O)C(=O)C1c1ccc(O)cc1` (stereo partly drawn) [(S)-methyl 4-hydroxy-2-(4-hydroxy-3-(3-methylbut-2-enyl)benzyl)-3-(4-hydroxyphenyl)-5-oxo-2,5-dihydrofuran-2-carboxylate], the IC50 (usually the midpoint of a concentration-inhibition curve) was above 100 µM. As to `COC(=O)[C@]1(Cc2ccc(OS(=O)(=O)O)c(CC=C(C)C)c2)OC(=O)C(=O)C1c1ccc(O)cc1` (some centres not stated) [butyrolactone I 4''-sulfate], the IC50 is above 100 µM.
